Data from US20110154513A1, “PROBE FOR VISUALIZING NEURAL ACTIVITY” (University of Toyama, priority 2008, published 2011).

Tests used:
hippocampal nerve cells = assay: Luminescence (photon count) of probes expressed in cultured hippocampal nerve cells after stimulation; assay type: cell-based, rat
Experimental: On day 18 of pregnancy, a rat fetus was taken out of a pregnant rat, and the brain was separated therefrom in cold PBS. Furthermore, brain slices containing hippocampal nerve cells were separated from the cerebrum. The separated hippocampal cells were reacted with 0.125% trypsin (protease) at room temperature for 20 minutes in a test tube such that adhesion factors on the cell surface were degraded to attenuate cell-cell adhesion. Then, the test tube was left standing for trypsin removal. After precipitation of the brain slices in the bottom of the test tube, the trypsin solution as a supernatant was removed by aspiration. Subsequently, a DMEM medium containing 10% serum was added to the test tube. The test tube was left standing again, and the supernatant was removed. The brain slices were dissociated into individual cells by repeating approximately 10 times aspiration and dropping using a plastic dropper. Then, the cells were cultured in a plastic dish.
On culture day 4, the plasmid encoding the fusion protein 1 of Example 1 was gene-transferred into the cells. The gene transfer method was performed using Lipofectamine 2000 in the same way as in the HEK293 cells. Two days after the gene transfer, the medium was replaced by an Opti-MEM medium (Invitrogen Corp.) containing 0.5 mM luciferin EF (Promega Corp.), a luminescent substrate of luciferase. The luminescence intensity was measured using a luminometer AEQUORIA (Hamamatsu Photonics K.K.). This apparatus counts the number of photons generated from cells during culture placed together with a plastic dish in a dark box. The measurement was performed for 1 consecutive hour, and the luminescence intensity at 1-minute intervals was plotted on the ordinate of a graph. Immediately before the measurement, the cells were stimulated with forskolin, glutamate, KCl, or the like.

actin polymerization = assay: Luminescence of IRES-linked split luciferase-actin fusion proteins in HEK293 cells with actin polymerization inhibitor; assay type: cell-based; conditions: inhibitor added 3 hours before measurement, varying concentrations
Source text: FIG. 7 is a graph showing results of Example 8. The graph depicts the relationship between an actin polymerization inhibitor concentration and luminescence from split luciferase-actin fusion proteins bound via an IRES sequence and expressed in HEK293 cells;
For preparing a form suitable for transgenic mouse preparation, plasmids were constructed for a fusion protein comprising two fusion proteins bound via an IRES sequence (the resultant fusion protein is referred to as a fusion protein 13: LucN-Actin-IRES-LucC-actin). LucC-Actin and LucN-Actin are thereby translated from one mRNA and expressed in cells. The gene transfer was performed in the same way as in Example 1. Moreover, in this experiment, an actin polymerization inhibitor latrunculin A was added into a medium 3 hours before luminescence measurement. Moreover, the luminescence measurement used a luminometer AEQUORIA (Hamamatsu Photonics K.K.).
This is the evidence that the luminescence of the prepared protein serves as an index for actin polymerization.

polymerized actin = assay: Rhodamine-phalloidin staining of polymerized actin in HEK293T cells; assay type: cell-based; conditions: varying concentrations of inhibitor
Experimental: FIG. 8 is a photograph showing results of Example 9. The photograph is an image of polymerized actin stained with rhodamine-phalloidin in the presence of varying concentrations of a polymerization inhibitor;
HEK293T cells were treated with latrunculin A and then fixed in 4% paraformaldehyde, and only polymerized actin was stained using F-Actin Visualization Biochem Kit (Cosmo Bio Co., Ltd.).
An image of polymerized actin stained with rhodamine-phalloidin in the presence of varying concentrations of the polymerization inhibitor was confirmed.

Question: Which results are given for [Cl-].[K+] [KCl, potassium chloride]?
Answer: increase in luminescence intensity by KCl stimulation (hippocampal nerve cells; fusion protein 1 expressed in nerve cells, compared to before addition of KCl): approximately 6 times; effect of stimulation on luminescence intensity (hippocampal nerve cells; nerve cells expressing fusion protein 5, 50 mM KCl, alone or with additive): increases the luminescence intensity

Question: C/C1=C/C(=O)O[C@@H]2C[C@@H](CC[C@H](C)/C=C\C=C\CC1)O[C@@](O)([C@@H]1CSC(=O)N1)C2 [latrunculin A] was tested. Which “luminescence of split luciferase-actin probe” value (actin polymerization) did it give?
Answer: decreased in a concentration-dependent manner

Question: And the “polymerized actin (rhodamine-phalloidin staining)” value (polymerized actin)?
Answer: decreased in a concentration-dependent manner

Question: Which “response of luminescence to KCl” value (hippocampal nerve cells; probe expressed in nerve cells, KCl stimulation) does the source give for “wild-type luciferase: wild-type firefly luciferase (Promega Corp.), control experiment” here?
Answer: does not exhibit the response to KCl
